Reference: patent publication US5206162A, “Process for making D-aminoacylase” (National Science Council of Republic of China, priority 1991, dated 1993)
Like-named read-outs stand apart in the source and are kept apart here.

What was measured:
Type in all cases: biochemical
D-aminoacylase [1] = biological target: T1, D-aminoacylase (Alcaligenes faecalis, UniProt Q9AGH8); assay: Influence of metallic ions on D-aminoacylase activities; details: 1 mM metallic ion, 50 mM Tris-HCl pH 7.8, 30 minutes at 37° C., ninhydrin method
T1 sequence (Q9AGH8 1-484): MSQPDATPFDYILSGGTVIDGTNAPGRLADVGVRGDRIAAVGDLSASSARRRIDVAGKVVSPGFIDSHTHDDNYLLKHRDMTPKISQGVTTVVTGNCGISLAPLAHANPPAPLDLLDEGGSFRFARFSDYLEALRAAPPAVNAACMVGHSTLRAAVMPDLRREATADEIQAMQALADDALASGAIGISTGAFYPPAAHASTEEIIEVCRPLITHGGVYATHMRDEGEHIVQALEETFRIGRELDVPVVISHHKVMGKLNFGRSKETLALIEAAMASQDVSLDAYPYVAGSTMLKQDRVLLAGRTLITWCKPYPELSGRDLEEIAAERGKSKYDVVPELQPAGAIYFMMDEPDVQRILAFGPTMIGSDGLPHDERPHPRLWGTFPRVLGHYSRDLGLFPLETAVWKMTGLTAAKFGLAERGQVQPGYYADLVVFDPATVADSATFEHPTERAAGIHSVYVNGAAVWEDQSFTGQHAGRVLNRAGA

D-aminoacylase [2] = biological target: T1, D-aminoacylase; assay: Reagents (inhibitors) influencing the D-aminoacylase activities
D-aminoacylase [3] = biological target: T1, D-aminoacylase; assay: Substrate specificity of D-aminoacylase (hydrolysis of N-acyl amino acids, ninhydrin method); details: for Relative Activity D-form: D-form of the substrate, N-acetyl-D-methionine = 100; for Relative Activity L-form: L-form of the substrate, relative to N-acetyl-D-methionine = 100
From the text: The activity of D-aminoacylase obtained by the method of this invention may be measured in accordance with Rosen method by using suitable amount of enzyme to decompose N-acetyl-D-methionine, of which the produced D-methionine may be quantitatively measured by D-amino acid oxidase or by ninhydrin method. [Note: H. Rosen, A modified ninhydrin colorimetric analysis for amino acids. Arch. Biochem. Biophys. 67:10-15 (1957)].
The activity unit of enzyme of this invention is defined herewith as the enzyme quantity required for decomposing 10 mM N-acetyl-D-methionine solution for releasing 1μ mole D-methionine per minute at 37° C.
The D-aminoacylase of this invention (hereinafter simply designated as "the acylase") may hydrolyze N-acyl-D-amino acids, but only slightly hydrolyze the N-acyl-L-amino acids.

[4] = 1 mM inhibitor, 50 mM Tris-HCl pH 7.8, 30 minutes at 37° C., ninhydrin method, read-out: Residual activities %

| Relative Activity D-form (D-aminoacylase [3]) | Relative Activity L-form (D-aminoacylase [3]) | Compound | Residual activities % (D-aminoacylase [1]) | further results |
| --- | --- | --- | --- | --- |
| – | – | [Ba+2].[Cl-].[Cl-] [BaCl2] | 99% | – |
| – | – | [Ca+2].[Cl-].[Cl-] [CaCl2] | 99% | – |
| – | – | [Cl][Cd][Cl] [CdCl2] | 0% | – |
| – | – | [Cl-].[Cl-].[Co+2] [CoCl2] | 96% | – |
| – | – | [Cl][Cu][Cl] [CuCl2] | 15% | – |
| – | – | O=C(O)CN(CCN(CC(=O)O)CC(=O)O)CC(=O)O [EDTA] | – | Inhibition of the enzyme by reagent (in words) (D-aminoacylase [2]): inhibited; remaining activity at 1000 µM (D-aminoacylase [2]; pH 7.8, read-out: Residual activities %): 22% |
| – | – | [Cl][Fe][Cl] [FeCl2] | 60% | – |
| – | – | [Cl][Hg][Cl] [HgCl2] | 0% | – |
| – | – | [Cl-].[Cl-].[Mg+2] [MgCl2] | 95% | – |
| – | – | [Cl][Mn][Cl] [MnCl2] | 70% | – |
| – | – | CSCC[C@@H](NC(C)=O)C(=O)O [N-acetyl-D-methionine] | – | Hydrolysis by the acylase (in words) (D-aminoacylase [3]): strongest |
| 14 | 0.7 | CC(=O)N[C@@H](C)C(=O)O [N-acetyl-alanine] | – | – |
| 8 | 0 | CC(=O)N[C@@H](CC(N)=O)C(=O)O [N-acetyl-asparagine] | – | – |
| 40 | 0.4 | CC(=O)NC(CC(C)C)C(=O)O (stereo not shown) [N-acetyl-leuoine] | – | – |
| 100 | 0.8 | CSCC[C@H](NC(C)=O)C(=O)O [N-acetyl-methionine] | – | – |
| 80 | 0.8 | CC(=O)N[C@@H](Cc1ccccc1)C(=O)O [N-acetyl-phenylalanine] | – | – |
| 3 | 0 | CC(=O)NC(C(=O)O)c1ccccc1 (stereo not shown) [N-acetyl-phenylglycine] | – | – |
| 14 | 0 | CC(=O)N[C@@H](Cc1c[nH]c2ccccc12)C(=O)O [N-acetyl-tryptophan] | – | – |
| 6 | 0 | CC(=O)N[C@H](C(=O)O)C(C)C [N-acetyl-valine] | – | – |
| 42 | 0.6 | CC(C)[C@H](NC(=O)CCl)C(=O)O [N-chloroacetyl-valine] | – | – |
| – | – | CCN1C(=O)C=CC1=O [N-ethylmaleimide] | – | remaining activity at 1000 µM (D-aminoacylase [2]; [4]): 36%; Inhibition of the enzyme by reagent (in words) (D-aminoacylase [2]; 1 mM, 37° C., 30 minutes): inhibited |
| – | – | [Cl][Ni][Cl] [NiCl2] | 89% | – |
| – | – | [Cl-].[Cl-].[Sr+2] [SrCl2] | 87% | – |
| – | – | [Cl-].[Cl-].[Zn+2] [Zncl2] | 0% | – |
| – | – | NC(=O)CI [iodoacetamide] | – | remaining activity at 1000 µM (D-aminoacylase [2]; [4]): 97% |
| – | – | O=C(O)c1cc[c]([Hg][Cl])cc1 [p-chloromercuibenzoic acid] | – | Residual activities % (D-aminoacylase [2]; 1 mM inhibitor, 50 mM Tris-HCl pH 7.8, 30 minutes at 37° C., ninhydrin method): 0%; Inhibition of the enzyme by reagent (in words) (D-aminoacylase [2]; 1 mM, 37° C., 30 minutes): inhibited |
| – | – | O=CC(=O)c1ccccc1 [phenylglyoxal] | – | remaining activity at 1000 µM (D-aminoacylase [2]; [4]): 65%; Inhibition of the enzyme by reagent (in words) (D-aminoacylase [2]; 1 mM, 37° C., 30 minutes): inhibited |
